How the values were obtained:
[1] = system: Sclerotinia homoeocarpa (SCLEHO); experiment: Field assessment of Sclerotinia homoeocarpa (SCLEHO), dollar spot, on creeping bentgrass; format: in vivo
[2] = system: Glomerella graminicola (COLLGR); experiment: Field assessment of Glomerella graminicola (COLLGR), anthracnose, on annual bluegrass; format: in vivo

For COc1ccnc(C(=O)N[C@@H](C)C(=O)O[C@@H](C)C(c2ccc(F)cc2)c2ccc(F)cc2)c1OC(C)=O [Compound I, (S)-1,1-bis(4-fluorophenyl)propan-2-yl (3-acetoxy-4-methoxypicolinoyl)-L-alaninate], the “Dollar Spot Infestation (% Visual)” value ([1]; 250 g ai/ha, 0 DAAA, percentage of plot infested) was 2.2%, the “Dollar Spot Infestation (% Visual)” value ([1]; 250 g ai/ha, 6 DAAC) was 0.6% and the “Dollar Spot Infestation (% Visual)” value ([1]; 250 g ai/ha, 8 DAAA) was 0.8%. For the same molecule, the “Dollar Spot Infestation (% Visual)” value ([1]; 250 g ai/ha, 8 DAAB) was 0.8%, the “Dollar Spot Infestation (% Visual)” value ([1]; 250 g ai/ha, 13 DAAB) was 1.1% and the “Dollar Spot Infestation (% Visual)” value ([1]; 250 g ai/ha, 13 DAAC) was 2.1%. The “Dollar Spot Infestation (% Visual)” value ([1]; 250 g ai/ha, 14 DAAA) was 0.7%, the “Dollar Spot Infestation (% Visual)” value ([1]; 500 g ai/ha, 0 DAAA) was 1.7% and the “Dollar Spot Infestation (% Visual)” value ([1]; 500 g ai/ha, 6 DAAC) was 0.3%. For the same molecule, the “Dollar Spot Infestation (% Visual)” value ([1]; 500 g ai/ha, 8 DAAA) was 0.5%, the “Dollar Spot Infestation (% Visual)” value ([1]; 500 g ai/ha, 8 DAAB) was 0.5% and the “Dollar Spot Infestation (% Visual)” value ([1]; 500 g ai/ha, 13 DAAB) was 0.6%. The “Dollar Spot Infestation (% Visual)” value ([1]; 500 g ai/ha, 13 DAAC) was 0.5%, the “Dollar Spot Infestation (% Visual)” value ([1]; 500 g ai/ha, 14 DAAA) was 0.5% and the “Dollar spot control compared with commercial standards (in words)” value ([1]; Compound I applied at 500 g ai/ha) was “provided better control than Eagle 20EW and was equivalent to Xzemplar Fungicide”. The “Dollar spot disease control (in words)” value ([1]; formulations of Compound I, observation period) was “significantly reduce dollar spot disease”, the “Anthracnose control compared with commercial standard (in words)” value ([2]; 250 and 500 g ai/ha treatments, Poa annua) was “equivalent to the control provided by Velista” and the “Anthracnose Infestation (% Visual)” value ([2]; 250 g ai/ha, 0 DAAA, Poa annua, percentage of plot infested) was 22.1%. For the same molecule, the “Anthracnose Infestation (% Visual)” value ([2]; 250 g ai/ha, 8 DAAA, Poa annua) was 7%, the “Anthracnose Infestation (% Visual)” value ([2]; 250 g ai/ha, 10 DAAB, Poa annua) was 22.1% and the “Anthracnose Infestation (% Visual)” value ([2]; 250 g ai/ha, 11 DAAC, Poa annua) was 11.5%. The “Anthracnose Infestation (% Visual)” value ([2]; 250 g ai/ha, 14 DAAA, Poa annua) was 7%, the “Anthracnose Infestation (% Visual)” value ([2]; 250 g ai/ha, 17 DAAB, Poa annua) was 11.5% and the “Anthracnose Infestation (% Visual)” value ([2]; 250 g ai/ha, 17 DAAC, Poa annua) was 22.1%. For the same molecule, the “Anthracnose Infestation (% Visual)” value ([2]; 500 g ai/ha, 0 DAAA, Poa annua) was 43.2%, the “Anthracnose Infestation (% Visual)” value ([2]; 500 g ai/ha, 8 DAAA, Poa annua) was 9.2% and the “Anthracnose Infestation (% Visual)” value ([2]; 500 g ai/ha, 10 DAAB, Poa annua) was 9.2%. The “Anthracnose Infestation (% Visual)” value ([2]; 500 g ai/ha, 11 DAAC, Poa annua) was 11.5%, the “Anthracnose Infestation (% Visual)” value ([2]; 500 g ai/ha, 14 DAAA, Poa annua) was 7% and the “Anthracnose Infestation (% Visual)” value ([2]; 500 g ai/ha, 17 DAAB, Poa annua) was 11.5%. The “Anthracnose Infestation (% Visual)” value ([2]; 500 g ai/ha, 17 DAAC, Poa annua) was 11.5% and the “Anthracnose disease control (in words)” value ([2]; formulations of Compound I, Poa annua putting greens) was “provided significant control of anthracnose disease”.

Source: patent US11191269B2, “Use of an acyclic picolinamide compound as a fungicide for fungal diseases on turfgrasses” (Dow AgroSciences LLC, priority 2017, dated 2021)
